Consider 13 molecules from patent publication US20030087906A1, “NITROGEN SUBSTITUTED BIARYL PURINE DERIVATIVES AS POTENT ANTIPROLIFERATIVE AGENTS” (priority 2001, published 2003).

As a reminder, the IC50 is the concentration at which inhibition is half-maximal. Broadly, the melting point is the temperature, or range, at which the solid turns liquid. Broadly, the GI50 is the concentration giving 50% growth inhibition. A higher GI50 goes with lower sensitivity of the cells.

Data set [1] has as its target T1, CyclinB/cdk1 (Homo sapiens, UniProt P06493).
T1 construct: Monoclonal antibody against cyclinB (GNS1) is added to the supernatant; endogenous in cells
Briefly: CyclinB/cdk1 protein kinase assay (histone H1 phosphorylation). It counts as biochemical. The conditions noted are these: complex immunopurified from HeLa cells; 15 μM ATP; replicate experiments. The protocol: HeLa cells are blocked at the G1/S border by culturing in the presence of 2 mM thymidine for 20 h. The cells are then rinsed 3×in phosphate buffered saline and resuspended in regular medium. After 4 h of culture, the mitotic blocker, nocodazole is added to a final concentration of 75 ng/ml. […] The lysate is then clarified by centrifugation at 10,000×g for 10 min. The supernatant is collected and diluted 1:5 with Lysis Buffer. Monoclonal antibody against cyclinB (GNS1) is added to the supernatant to a final concentration of 5 μg/ml and shaken at 4° C. for 2 h. The immune complexes are then collected by the addition of 200 μl of protein agarose beads for 1 h. The beads are washed 4×in lysis buffer and 1×in kinase assay buffer.
Duplicate assays were performed at each concentration.

Data set [2] deals with CyclinE/cdk2 (Homo sapiens, UniProt P24941). Briefly: CyclinE/cdk2 protein kinase assay (histone H1 phosphorylation). The settings on record: IC50 CyclinE/cdk2, complex immunopurified from HeLa cells; 15 μM ATP; replicate experiments.
Data set [3] deals with CyclinA/cdk2 (Homo sapiens, UniProt P24941). Briefly: CyclinA/cdk2 protein kinase assay (histone H1 phosphorylation). The conditions noted are these: IC50 CyclinA/cdk2, complex immunopurified from HeLa cells; 15 μM ATP; replicate experiments.
The subject of data set [4] is HeLa S-3 cells. Kind of data set: Inhibition of cell growth of HeLa cells (SRB). The settings on record: 2 days of treatment, replicate experiments. The class given is cell-based, human. The protocol:
Growth inhibition (GI50) values were measured with HeLa S-3 cells selected for growth on plastic. […] One day later, a control plate was fixed by addition of TCA to 5%. After five rinses with tap water the plate was air dried and stored at 4° C. Test compounds were added to the remaining plates at 10-fold dilutions between 0.01 and 100 μM. Two days later all plates were fixed as described above. Cells were then stained by the addition of 100 μl per well of 0.4% sulforhodamine B (SRB) in 1% acetic acid for 30 min at 4° C. Wells were then quickly rinsed 5×with acetic acid (1%) and allowed to air dry. The SRB was then solubilized by the addition of 100 μl per well of unbuffered 10 mM Tris base. Dye was quantified by measuring absorbance at 490 nm on a Molecular Devices kinetic microplate reader. Growth at each inhibitor concentration relative to the untreated control was calculated according to the following equation: percent growth=100×(T−To)/(C−To), where T was the average optical density (OD) of the test wells after 2 days of treatment, To was the average OD of the wells in the control plate on day 0 and C was the average OD of untreated wells. Plots of percent growth versus inhibitor concentration were used to determine the GI50.

SMILES strings stand for the structures. Where “and” joins values, the source holds several entries; their conditions need not be identical. Identical values can stand only once.

T1 sequence (P06493 whole entry): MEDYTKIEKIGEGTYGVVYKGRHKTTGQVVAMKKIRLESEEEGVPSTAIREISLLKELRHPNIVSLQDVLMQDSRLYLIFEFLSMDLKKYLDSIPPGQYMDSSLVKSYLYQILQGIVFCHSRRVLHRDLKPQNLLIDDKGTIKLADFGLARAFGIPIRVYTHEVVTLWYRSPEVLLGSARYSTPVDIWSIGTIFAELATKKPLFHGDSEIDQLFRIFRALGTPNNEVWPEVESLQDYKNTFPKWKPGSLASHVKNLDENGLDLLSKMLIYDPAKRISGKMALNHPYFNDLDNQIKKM
T1 sequence (P14635 whole entry partner): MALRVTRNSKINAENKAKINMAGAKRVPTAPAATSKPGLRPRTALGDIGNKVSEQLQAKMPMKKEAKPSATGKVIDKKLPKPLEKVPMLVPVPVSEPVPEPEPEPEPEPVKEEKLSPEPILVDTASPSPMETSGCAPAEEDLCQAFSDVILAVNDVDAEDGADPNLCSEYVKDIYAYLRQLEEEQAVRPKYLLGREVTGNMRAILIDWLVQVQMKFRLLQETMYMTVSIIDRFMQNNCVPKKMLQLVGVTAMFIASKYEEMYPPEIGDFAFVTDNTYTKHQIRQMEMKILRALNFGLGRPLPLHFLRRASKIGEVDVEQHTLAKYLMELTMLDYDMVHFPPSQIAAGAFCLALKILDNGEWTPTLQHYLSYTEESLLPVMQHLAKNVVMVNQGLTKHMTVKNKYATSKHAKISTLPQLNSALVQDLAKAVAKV

`CC(C)n1cnc2c(NCc3ccc(-c4ccccc4)cc3)nc(N[C@H]3CC[C@H](O)CC3)nc21` [Compound 77] had a melting point of 196 to 200 °C. For the same molecule, in data set [1], the IC50 was > 10 µM. Besides, the half-maximal inhibitory concentration (IC50) in data set [2] was 4 µM and 14 µM. For the same molecule, in data set [3], the IC50 was > 10 µM.
As for `CC(C)n1cnc2c(NCc3ccc(-c4ccc(C(=O)O)cc4)cc3)nc(N[C@H]3CC[C@H](N)CC3)nc21` [Compound 114], the melting point is 246 to 249 °C (dec.). Further, in data set [4] (Homo sapiens, HeLa S3, 48 h), the GI50 is > 10000 nM. In data set [2], this molecule showed an IC50 of 0.7 µM. Moreover, the IC50 in data set [3] is 3 µM.
Taken in the same sequence, the figures for `COC(=O)c1ccc(-c2ccc(CNc3nc(N[C@H]4CC[C@H](N)CC4)nc4c3ncn4C(C)C)cc2)cc1` [Compound 115] were 194 to 197 °C, 3000 nM, 0.4 µM and 3 µM.
Consider `CC(C)n1cnc2c(NCc3ccc(-c4cccc(C(=O)O)c4)cc3)nc(N[C@H]3CC[C@H](N)CC3)nc21` [Compound 118], for which the melting point lay within 205 to 208 °C. The IC50 in data set [2] came to 1 µM. In addition, the IC50 in data set [3] was determined as 6 µM.
The molecule `CC(=O)N[C@H]1CC[C@H](Nc2nc(NCc3ccc(-c4ccccc4)cc3)c3ncn(C(C)C)c3n2)CC1` [Compound 76] displayed a melting point of 224 to 225 °C. In data set [1], this molecule registered an IC50 of 6 µM. Besides, the IC50 in data set [2] is 3 µM and 5 µM and 2 µM. Besides, the IC50 in data set [3] is 12 µM and 11 µM and 3 µM.
`CC(=O)N[C@H]1CC[C@H](Nc2nc(NCc3ccc(-c4ccc(C(=O)O)cc4)cc3)c3ncn(C(C)C)c3n2)CC1` [Compound 116] returned a melting point of 344 to 347 °C. The 50% growth inhibitory concentration (GI50) in data set [4] (Homo sapiens, HeLa S3, 48 h) was > 10000 nM. Besides, the 50% inhibitory concentration (IC50) in data set [2] was > 10 µM. Besides, in data set [3], the 50% inhibitory concentration (IC50) is > 10 µM.
Turning to `CC(C)n1cnc2c(NCc3ccc(-c4ccsc4)nc3)nc(N[C@H]3CC[C@H](N)CC3)nc21` [Compound 123], the melting point fell in the range of 78 to 81 °C. Moreover, the GI50 in data set [4] was < 1 nM and 0.1 nM. For the same molecule, the IC50 in data set [2] came out at 0.04 µM. This molecule also yielded an IC50 in data set [3] of 0.2 µM.
`COc1cccc(-c2ccc(CNc3nc(N[C@H]4CC[C@H](NC(C)=O)CC4)nc4c3ncn4C(C)C)cn2)c1` [Compound 194]: the melting point is 161 to 163 °C. Further, growth in data set [4] was halved (GI50) at 40 nM. The same molecule registered a GI50 in data set [4] (Homo sapiens, HeLa S3, 48 h) of 60 nM.
Consider `CC(=O)NCCCNc1nc(NCc2ccc(-c3ccccc3)cc2)c2ncn(C(C)C)c2n1` [Compound 212], for which the melting point is 106 to 107 °C. This molecule also had a GI50 in data set [4] (Homo sapiens, HeLa S3, 48 h) of 5000 nM.
Taken in the same sequence, the figures for `CC(=O)N[C@H]1CC[C@H](Nc2nc(NCc3ccc(-c4cc(C)cc(C)c4)cc3)c3ncn(C(C)C)c3n2)CC1` [Compound 150] were 207 to 210 °C and 300 nM.
As to `COC(=O)c1ccc(-c2ccc(CNc3nc(N[C@H]4CC[C@H](NC(C)=O)CC4)nc4c3ncn4C(C)C)cc2)cc1` [Compound 117], the melting point lay in the range of 247 to 250 °C. In addition, the IC50 in data set [2] was found to be 3 µM. Moreover, the IC50 in data set [3] was > 10 µM.
On to `CC(=O)N[C@H]1CC[C@H](Nc2nc(NCc3ccc(-c4cccs4)nc3)c3ncn(C(C)C)c3n2)CC1` [Compound 200], for which the melting point lay in the range of 206 to 208 °C. The molecule further registered a 50% growth inhibitory concentration (GI50) in data set [4] of 200 nM. This molecule gave a GI50 in data set [4] (Homo sapiens, HeLa S3, 48 h) of 300 nM.
The like results for `COc1ccc(OC)c(-c2ccc(CNc3nc(N[C@H]4CC[C@H](NC(C)=O)CC4)nc4c3ncn4C(C)C)cc2)c1` [Compound 154] were, in that order, 185 to 192 °C, 900 nM and 600 nM.
